Experimental findings from ChEMBL document CHEMBL5241097, “Synthetically-tailored and nature-derived dual COX-2/5-LOX inhibitors: Structural aspects and SAR” (Eur J Med Chem, 2021) are described below.

Assay [1] has as its target Prostaglandin G/H synthase 1 (Homo sapiens, UniProt P23219). The assay is described as follows: Inhibition of recombinant human COX-1 using arachidonic acid as substrate by ELISA. For orientation: In an ELISA, binding on a coated surface is turned into a signal by an enzyme label.
Assay [2] addresses T1, Polyunsaturated fatty acid 5-lipoxygenase (Homo sapiens, UniProt P09917).
T1 sequence (P09917 whole entry): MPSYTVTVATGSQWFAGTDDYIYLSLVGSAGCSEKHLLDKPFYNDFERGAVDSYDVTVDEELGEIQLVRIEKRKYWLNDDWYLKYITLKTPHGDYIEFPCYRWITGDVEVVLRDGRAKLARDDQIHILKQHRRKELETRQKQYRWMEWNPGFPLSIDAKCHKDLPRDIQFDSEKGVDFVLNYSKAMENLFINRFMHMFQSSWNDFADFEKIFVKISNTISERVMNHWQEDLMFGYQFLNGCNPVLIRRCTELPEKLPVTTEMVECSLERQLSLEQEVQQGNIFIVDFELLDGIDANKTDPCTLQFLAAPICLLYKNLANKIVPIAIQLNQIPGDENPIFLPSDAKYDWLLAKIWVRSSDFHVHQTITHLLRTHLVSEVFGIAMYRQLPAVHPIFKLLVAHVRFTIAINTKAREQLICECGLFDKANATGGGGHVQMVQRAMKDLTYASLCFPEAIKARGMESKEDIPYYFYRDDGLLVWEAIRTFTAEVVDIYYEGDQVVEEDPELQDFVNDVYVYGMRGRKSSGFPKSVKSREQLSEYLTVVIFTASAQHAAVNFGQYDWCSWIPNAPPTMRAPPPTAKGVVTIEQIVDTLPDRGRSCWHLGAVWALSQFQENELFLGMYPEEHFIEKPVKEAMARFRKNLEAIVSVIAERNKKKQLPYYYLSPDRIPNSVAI
The assay is described as follows: Inhibition of 5-LOX (unknown origin) by fluorometric analysis.

The target in assay [3] is T2, Prostaglandin G/H synthase 2 (Homo sapiens, UniProt P35354).
T2 sequence (P35354 whole entry): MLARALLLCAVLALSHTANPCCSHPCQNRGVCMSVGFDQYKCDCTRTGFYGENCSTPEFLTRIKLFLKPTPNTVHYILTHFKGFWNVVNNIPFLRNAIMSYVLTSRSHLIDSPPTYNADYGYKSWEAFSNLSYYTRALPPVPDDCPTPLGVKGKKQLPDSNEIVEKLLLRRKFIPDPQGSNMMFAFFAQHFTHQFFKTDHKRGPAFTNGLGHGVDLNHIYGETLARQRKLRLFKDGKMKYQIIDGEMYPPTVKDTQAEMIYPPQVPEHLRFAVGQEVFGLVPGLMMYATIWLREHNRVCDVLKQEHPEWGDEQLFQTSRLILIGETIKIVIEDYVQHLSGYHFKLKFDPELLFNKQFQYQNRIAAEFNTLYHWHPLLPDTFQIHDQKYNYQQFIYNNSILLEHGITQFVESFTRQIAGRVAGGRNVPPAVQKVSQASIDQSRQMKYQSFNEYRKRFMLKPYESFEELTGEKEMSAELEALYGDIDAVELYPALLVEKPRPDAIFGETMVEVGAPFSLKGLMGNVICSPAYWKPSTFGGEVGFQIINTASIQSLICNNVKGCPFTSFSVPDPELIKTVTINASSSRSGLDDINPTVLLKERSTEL
As to the kind of experiment: Inhibition of recombinant human COX-2 using arachidonic acid as substrate by ELISA.

Assay [4] in a line: Inhibition of soybean 5-LOX using linoleic acid as substrate by spectrophotometric analysis. Also noted: species or system Glycine max.
For assay [5], the target named is T2, Prostaglandin G/H synthase 2. As to the kind of experiment: Inhibition of COX-2 (unknown origin) using arachidonic acid as substrate preincubated for 15 mins followed by substrate addition by colorimetric assay.
For assay [6], the system named is Rattus norvegicus. The assay is described as follows: Antiinflammatory activity in carragenan-induced paw edema rat model assessed as reduction in edema thickness at 28 microg/kg, ip and measured after 4 hrs by digital Vernier caliper analysis. It is filed as functional. Also noted: scale not given: the % may be the effect or the level left. To be noted: dose 28 µg/kg.

The target of assay [7] is T2, Prostaglandin G/H synthase 2. As to the kind of experiment: Inhibition of recombinant human COX-2 using arachidonic acid as substrate preincubated for 10 mins followed by substrate addition and measured after 2 mins by ELISA.
The target of assay [8] is T1, Polyunsaturated fatty acid 5-lipoxygenase. The assay is described as follows: Inhibition of 5-LOX (unknown origin) using linoleic acid as substrate preincubated for 5 mins followed by substrate addition by spectrophotometric assay.
For the next assay, the species on record is Homo sapiens. The assay is described as follows: Selectivity index, ratio of IC50 for inhibition of human COX1 to IC50 for inhibition of human COX2.
Assay [9] in a line: Selectivity index, ratio IC50 for inhibition of ovine COX-1 to IC50 for inhibition of recombinant human COX-2.
For assay [10], the target named is T1, Polyunsaturated fatty acid 5-lipoxygenase. As to the kind of experiment: Inhibition of 5-LOX (unknown origin) by enzyme immune assay.
The target in assay [11] is T2, Prostaglandin G/H synthase 2. As to the kind of experiment: Inhibition of recombinant human COX-2 by enzyme immune assay.
For assay [12] the target is unchanged. As to the kind of experiment: Inhibition of recombinant human COX-2 using arachidonic acid as substrate preincubated for 10 mins followed by substrate addition and measured after 2 mins by Ellman's reagent based ELISA. (In general: In Ellman's method for cholinesterases, released thiocholine reacts with DTNB.)
Assay [13] addresses T1, Polyunsaturated fatty acid 5-lipoxygenase. The assay is described as follows: Inhibition of recombinant human 5-LOX using arachidonic acid as substrate incubated for 10 mins by spectrophotometric analysis.
Assay [14] deals with T2, Prostaglandin G/H synthase 2. The assay is described as follows: Inhibition of COX-2 (unknown origin) using arachidonic acid as substrate preincubated for 5 mins followed by substrate addition by colorimetric assay.
Assay [15] has as its target T1, Polyunsaturated fatty acid 5-lipoxygenase. The assay is described as follows: Inhibition of 5-LOX (unknown origin) by colorimetric assay.
Another assay concerns DU-145. The assay is described as follows: Antiproliferative activity against human DU-145 cells assessed as reduction in cell viability incubated for 48 hrs by MTT assay. It is filed as functional, cell-based. To be noted: DU-145, 48 h. A general note: Formazan colour is commonly taken as a measure of viable cells.
Assay [16] can be described thus: Inhibition of soybean 5-LOX using arachidonic acid as substrate preincubated for 5 mins followed by substrate addition and measured after 5 mins by microplate spectrophotometric analysis. Also noted: species or system Glycine max.
Assay [17] concerns the target T2, Prostaglandin G/H synthase 2. As to the kind of experiment: Inhibition of COX-2 (unknown origin) using arachidonic acid as substrate preincubated for 5 mins followed by substrate addition and measured after 20 mins by colorimetric assay.
Assay [18] shares this target. The assay is described as follows: Inhibition of COX-2 (unknown origin).
In assay [19] the target is T1, Polyunsaturated fatty acid 5-lipoxygenase. The assay is described as follows: Inhibition of recombinant human 5-LOX using arachidonic acid as substrate preincubated for 10 mins followed by substrate addition and measured after 10 mins by ELISA.
For assay [20] the target is unchanged. The assay is described as follows: Inhibition of 5-LOX (unknown origin).
For assay [21], the system named is Rattus norvegicus. As to the kind of experiment: Antiinflammatory activity in Wistar rat carragenan-induced paw edema model assessed as reduction in edema thickness at 50 mg/kg, po and measured after 2 hrs. It is filed as functional. Also noted: scale not given: the % may be the effect or the level left.

Prostaglandin G/H synthase 1, sequence (P23219 whole entry): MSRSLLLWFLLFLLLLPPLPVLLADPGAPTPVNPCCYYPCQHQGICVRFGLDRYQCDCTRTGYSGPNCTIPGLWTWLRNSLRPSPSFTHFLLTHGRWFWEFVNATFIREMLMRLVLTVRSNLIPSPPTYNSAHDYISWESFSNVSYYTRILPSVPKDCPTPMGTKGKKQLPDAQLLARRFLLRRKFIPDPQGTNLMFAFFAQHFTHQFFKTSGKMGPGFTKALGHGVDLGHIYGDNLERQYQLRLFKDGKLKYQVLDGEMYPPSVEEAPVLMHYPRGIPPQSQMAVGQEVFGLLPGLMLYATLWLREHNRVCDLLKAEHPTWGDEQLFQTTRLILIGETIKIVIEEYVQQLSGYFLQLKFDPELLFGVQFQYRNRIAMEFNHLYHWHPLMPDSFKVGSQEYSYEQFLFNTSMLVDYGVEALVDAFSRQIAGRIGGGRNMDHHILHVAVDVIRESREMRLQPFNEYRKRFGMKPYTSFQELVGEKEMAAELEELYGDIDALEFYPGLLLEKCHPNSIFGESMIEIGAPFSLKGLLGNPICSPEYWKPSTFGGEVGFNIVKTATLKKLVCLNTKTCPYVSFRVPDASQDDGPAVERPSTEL

What is called IC50 is the concentration that gives 50% inhibition. On to `COc1cc(/C=c2\c(=O)[nH]n3c(=O)c4ccccc4nc23)cc(OC)c1OC`, for which the IC50 came to 668 nM in assay [1], 2300 nM in assay [2] and 47 nM in [3].
Consider `O=C(c1ccc(-c2nc(CSc3nc4ccccc4s3)no2)cc1)N1CCOCC1`, for which the results for the IC50 in assay [4] and in assay [5] were 5600 nM and 5000 nM, respectively.
`Nc1ccc(O)c(C(=O)NC2CCCCC2)c1`: the Activity in the assay with Rattus norvegicus [6] worked out at 102%.
For the molecule `O=C(/N=C1\SC=C(c2ccc([N+](=O)[O-])cc2)C1c1ccccc1)c1cccc2ccccc12` (configuration not stated), the IC50 in assay [7] worked out at 80 nM; in [8], 360 nM. In addition, the Ratio IC50 in the assay listed under Homo sapiens amounted to 90.
With `CCCCNC(=O)c1cc(NCc2cc(O)ccc2O)ccc1O`, the Ratio IC50 in assay [9] was 135. Also, in the assay on Rattus norvegicus [6], the Activity was found to be 40.05%. Moreover, the figures for the half-maximal inhibitory concentration (IC50) in [10] and in assay [11] were 10500 nM and 100 nM, respectively.
As for `CC1=CCCC2C1(C)CCC(C)C2(C)CC/C(=C\C(=O)O)CO` (configuration not stated), the values for the concentration for half-maximal inhibition (IC50) in assay [12] and in [13] were 12700 nM and 30500 nM, respectively.
For `CC1=NN(c2ccc(S(N)(=O)=O)cc2)C(=O)/C1=N/Nc1ccc(S(N)(=O)=O)cc1`, the figures for the IC50 in assay [14] and in assay [15] were 660 nM and 570 nM, respectively.
For `CCc1ccc(-c2ccc(-n3cc(CNC(=O)C(=O)c4c[nH]c5ccccc45)nn3)cc2)cc1`, the values for the IC50 (in the assay with DU-145; in assay [16]; in assay [17]) were 8170 nM, 7730 nM and 120 nM, respectively.
`COc1cc(C(=O)O)cc(O)c1O` gave an IC50 in assay [18] of 23400 nM.
For `Oc1cc(O)cc(/C=C/c2ccc(O)c(O)c2)c1` [PICEATANNOL], the IC50 in assay [19] amounted to 390 nM.
In the case of `COc1ccc(-c2nc(-c3cn(C)c4ccccc34)c(C(=O)c3ccc(C#N)cc3)s2)cc1OC`, the results for the IC50 in assay [20] and in assay [18] were 1370 nM and 2100 nM, respectively.
Take `CC(=O)OC[C@@H]1O[C@@H](n2cc(CNC(=O)C(=O)c3cn(S(=O)(=O)c4ccc(C)cc4)c4ccccc34)nn2)[C@H](OC(C)=O)[C@@H](OC(C)=O)[C@H]1OC(C)=O`: the figures for the IC50 (in the assay with DU-145; in [16]; in assay [17]) were 18500 nM, 7460 nM and 120 nM, respectively.
On to `O=C(NC1CCCCC1)c1cc(/N=C/c2cc(O)ccc2O)ccc1O`, for which the Ratio IC50 in [9] was 120. The half-maximal inhibitory concentration (IC50) was 11300 nM in [10] and 110 nM in assay [11].
Consider `C=C1CCCC2C1(C)CCC(C)C2(C)CCC1=CC(=O)OC1O` (configuration not stated), for which the IC50 turned out to be 8490 nM in assay [12] and 12700 nM in [13].
For the molecule `O=Cc1ccc(O)c(O)c1` [PROTOCATECHUALDEHYDE], the IC50 in [18] was 19700 nM.
With `CCc1cc(OC)c(OC)c(OC)c1`, in [7], the IC50 was found to be 180 nM. For the same molecule, the Ratio IC50 in the assay listed under Homo sapiens came to 668.
As to `N=C1/C(=N\Nc2ccc(S(N)(=O)=O)cc2)C(N)=NN1c1ccc(S(N)(=O)=O)cc1`, the IC50 in assay [14] amounted to 920 nM; in assay [15], 2780 nM.
As for `C=C1C(O)CCC2C1(C)CCC(C)C2(C)CCC1=CC(=O)OC1O` (configuration not stated), the IC50 in assay [12] stood at 12800 nM; in assay [13], 16500 nM.
In the case of `CC1=NN(c2ccccc2C(=O)O)C(=O)/C1=N/Nc1ccc(S(N)(=O)=O)cc1`, the IC50 in [14] is 720 nM; in [15] it was 520 nM. In addition, in the assay on Rattus norvegicus [21], the Activity is recorded as 72.72%.
